Data taken from US20200054646A1, “USE OF PHENOTHIAZINE DERIVATIVE IN THE TREATMENT OF INFECTIOUS PURPURA OR PURPURA FULMINANS” (priority 2016, published 2020).

Legend:
[1] = tested on: meningococcal colonization of the human dermal vasculature; assay: In vivo infection of mice engrafted with human skin; conditions: cefotaxime treatment
[2] = tested on: Nm2C4.3 microcolonies on HBMEC; assay: Dispersion of meningococcal microcolonies at the surface of infected human endothelial cells; format: cell-based, Neisseria meningitidis; conditions: Cefotaxim 20 μg/ml
Procedure: Human […] microvascular endothelial cells (HBMEC) were infected with Nm2C4.3 for 1 h 30, treated with Trifluoperazine (10-40 μM) for 30 minutes, before fixation and immunofluorescence analysis using anti-Nm2C4.3 antibody and Alexa Fluor 633 Phalloidin. (A) Representative fluorescence microscopy showing bacterial colony (white dots) formed at the surface of the endothelial cells. (B) Quantification of the bacterial colonization was performed using Image J software.
HBMEC, a human endothelial cell line isolated from bone marrow capillaries (Schweitzer et al., 1997) were grown in Dulbecco's Modified Eagle Medium (DMEM) 4.5 g/L-Glutamax (ThermoFischer) 10% FBS. Cells were grown on Thermanox coverslips coated with gelatin 2% (BD Difco #214340) for 2 days to reach confluency. Cells were then infected with a suspension of Nm2C4.3 (˜10^7 CFU/ml) in DMEM/FBS during 30 minutes to allow bacterial adhesion. Cells were then washed three times with medium to remove non-adherent bacteria and infection was pursued for 1 h 30: adherent bacteria grew at the endothelial cell surface and formed micro-colonies. Trifluoperazine was then added to obtain final concentrations of 10, 20, 30 and 40 μM. After incubation for 30 minutes, cells were washed and fixed in 4% Paraformaldehyde for 10 min, washed three times with PBS, and permeabilized with 0.1% Triton X-100 in PBS for 10 min. Cells were blocked for 30 min with 3% BSA in PBS and were incubated for 2 h with the primary antibodies (Rabbit polyclonal anti-Nm2C4.3 strain, kindly provided by Dr X. Nassif, INEM, Paris). After three washes with PBS, cells were incubated for 1 h with […] anti-rabbit IgG (Jackson ImmunoResearch Laboratories), together with Alexa Fluor 633 Phalloidin (Thermofischer) and DAPI (0.5 mg ml-1, Sigma Aldrich) to stain Actin and nuclei, respectively. Labelled preparations were mounted in Glycergel media (DAKO) and image acquisitions were performed with a DM16000 microscope (Leica, X40). Quantification was done with ImageJ software (NIH). Results are presented as a vascular colonisation index corresponding to the area occupied by the fluorescently labelled bacteria per fields in relation to the area occupied by the fluorescently labelled human endothelial cells (Actin staining). Statistical analysis were performed with Student t test.

[3] = tested on: N. meningitidis 2C4.3 bacterial aggregates; assay: microbe, parasite or virus in culture; format: cell-based, Neisseria meningitidis; conditions: for effect on dispersion of meningococcal aggregates (in words): 0.5 to 80 μM, 30 min; for Concentration promoting efficient meningococcal dispersal (~80%): 30 min treatment, 0.5 to 80 μM tested; for EC80: Neisseria meningitidis, 0.5 h, read-out: Concentration promoting efficient meningococcal dispersal (~80%)
Procedure: N. meningitidis 2C4.3 was grown in liquid culture at 10^7 CFU/ml for 2 h to form bacterial aggregates and were treated with increasing concentrations of Trifluoperazine (10 to 40 μM), Gentamicin (150 μg/ml) or cefotaxim (20 μg/ml) for 20 minutes and bacterial aggregates were immediately visualized using a phase-contrast microscope. […] (B) Quantification of the bacterial aggregation was performed using Image J software.
N. meningitidis 2C4.3 wild type strain and the isogenic derivative mutant PilT ([…]PilT) were grown in liquid culture at 10^7 CFU/ml for 2 h to form bacterial aggregates and then treated with 50 μM Trifluoperazine. Time lapse phase-contrast video microscopy was performed to visualize the effect on bacterial aggregates over time. Images were taken at the indicated time points of the video.
N. meningitidis 2C4.3 was grown in liquid culture at 10^7 CFU/ml for 2 h to form bacterial aggregates and were treated with 30 μM Trifluoperazine for 30 minutes to induce bacterial dispersion or PBS as a control. The medium was replaced to remove the Trifluoperazine and the reformation of bacterial aggregates were visualized overtime using a phase-contrast microscope.
FIG. 7. […] Bacteria were grown in suspension for 2 h then Phenothiazine derivatives were added at the indicated concentrations.
N. meninigitidis 2C4.3 strain was grown in suspension in wells of a 24 well plate, containing 1 ml of DMEM medium supplemented with 10% heat-inactivated fetal calf serum. After 2 h of growth, Trifluoperazine (or control vehicle) was added at various concentrations ranging from 10 to 40 μM for 20 min and the bacterial aggregates were visualized over time using a phase-contrast microscope.
N. meninigitidis 2C4.3 strain was grown in suspension in wells of a 24 well plate, containing 1 ml of DMEM medium supplemented with 10% heat-inactivated fetal calf serum. After 2 h of growth, various concentrations (0.5 to 80 μM) of phenothiazine-derivative compounds or control vehicle (PBS or DMSO) were added to the wells for 30 min and the bacterial aggregates were visualized using a phase-contrast microscope.
Were tested phenothiazine-derivative compounds of: • the Piperazine group: Trifluoperazine (Sigma #T8516), Fluphenazine (Sigma #F4765), Prochlorperazine (Sigma #P9178) Perphenazine (Sigma #P6402); • the Piperidine group: Thioridazine (Sigma #T9025) and Mesoridazin (Sigma #M4068); • the Aliphatic group: Chlorpromazine (Sigma #C8138), Promazine (Sigma #P6656), Triflupromazine (Sigma #1686003) and levomepromazine (Sigma #L0500000).

## CO/N=C(\C(=O)N[C@@H]1C(=O)N2C(C(=O)O)=C(COC(C)=O)CS[C@H]12)c1csc(N)n1 [Cefotaxim]
[1]
  increase of inflammatory response: 2 fold
[2]
  dispersion of microcolonies at the endothelial cell surface: poorly induced the dispersion
[3]; Cefotaxim 20 μg/ml, 20 minutes
  dispersion of bacterial aggregates formed in suspension: did not significantly induce the dispersion

## CN(C)CCCN1c2ccccc2Sc2ccc(Cl)cc21 [Chlorpromazine]
[3]
  effect on dispersion of meningococcal aggregates (in words): no effects
  Concentration promoting efficient meningococcal dispersal (~80%): No effect

## OCCN1CCN(CCCN2c3ccccc3Sc3ccc(C(F)(F)F)cc32)CC1 [Fluphenazine]
[3]
  EC80: 40 µM

## COc1ccc2c(c1)N(C[C@H](C)CN(C)C)c1ccccc1S2 [Levomepromazine]
[3]
  effect on dispersion of meningococcal aggregates (in words): no effects
  Concentration promoting efficient meningococcal dispersal (~80%): No effect

## CN1CCCCC1CCN1c2ccccc2Sc2ccc([S+](C)[O-])cc21 (stereo not shown) [Mesoridazine]
[3]
  EC80: 6 µM

## OCCN1CCN(CCCN2c3ccccc3Sc3ccc(Cl)cc32)CC1 [Perphenazine]
[3]
  EC80: 40 µM

## CN1CCN(CCCN2c3ccccc3Sc3ccc(Cl)cc32)CC1 [Prochlorperazine]
[3]
  EC80: 30 µM

## CN(C)CCCN1c2ccccc2Sc2ccccc21 [Promazine]
[3]
  effect on dispersion of meningococcal aggregates (in words): inhibited bacterial aggregation with better efficacy than Trifluoperazine
  EC80: 10 µM

## CSc1ccc2c(c1)N(CCC1CCCCN1C)c1ccccc1S2 (stereo not shown) [Thioridazine]
[3]
  EC80: 4 µM

## CN(C)CCCN1c2ccccc2Sc2ccc(C(F)(F)F)cc21 [Triflupromazine]
[3]
  effect on dispersion of meningococcal aggregates (in words): no effects
  Concentration promoting efficient meningococcal dispersal (~80%): No effect
